According to patent US20230141101A1, “PDE4 INHIBITOR COMPOUND AND MEDICAL USE THEREOF” (Suzhou Longbotai Pharmaceuticals Co., Ltd., priority 2020, published 2023):

Legend:
Assay type in all cases: biochemical
Details in all cases: 20 nM
PDE4A1A = target: T1, PDE4A1A (Homo sapiens, UniProt P27815); experiment: PDE4 inhibitory activity assay (FAM-cAMP enzymatic reaction), PDE4A1A
T1 construct: purchased BPS 60040
Protocol: (§1) The compounds of the present disclosure were tested for their inhibitory activity (IC50 value) against PDE4A1A, PDE4B1, and PDE4D2.
(§2) Positive compound: Trequinsin (Sigma, Cat No. T20S7).
(§3) Instrument: Wallac Victor Muti-lable counter (Pekin Elmer) Steps of assay:
(§4) PDE enzymatic reaction; • 1) PDE was dissolved in 1× reaction solution to prepare 2× enzyme solution; • 2) FAM-cAMP was dissolved in 1× reaction solution to prepare 2× substrate solution; • 3) Corresponding volume of the compound in DMSO was transferred to the reaction plate through Echo 550; • 4) 2× enzyme solution was added into the corresponding wells of the reaction plate and incubated with the compound solution for 15 minutes at room temperature; • 5) 2× substrate solution was added into the corresponding well of the reaction plate to initiate the reaction; • 6) After the reaction plate was incubated at room temperature for 30 min, the reaction was terminated by adding reaction stopping solution. The reaction plate was incubated at room temperature for another 60 minutes;
(§5) Inhibition rates were calculated with Excel; and IC50 for each compound was calculated with Graphpad prism.

PDE4B1 = target: T2, PDE4B1 (Homo sapiens, UniProt Q07343); experiment: PDE4 inhibitory activity assay (FAM-cAMP enzymatic reaction), PDE4B1
T2 construct: purchased BPS 60041
Protocol: as §1, §2, §3, §4, §5

PDE4D2 = PDE4D2 (Homo sapiens, UniProt Q08499); experiment: PDE4 inhibitory activity assay (FAM-cAMP enzymatic reaction), PDE4D2
Protocol: as §1, §2, §3, §4, §5

T1 sequence (P27815 1-647 isoform P27815-4): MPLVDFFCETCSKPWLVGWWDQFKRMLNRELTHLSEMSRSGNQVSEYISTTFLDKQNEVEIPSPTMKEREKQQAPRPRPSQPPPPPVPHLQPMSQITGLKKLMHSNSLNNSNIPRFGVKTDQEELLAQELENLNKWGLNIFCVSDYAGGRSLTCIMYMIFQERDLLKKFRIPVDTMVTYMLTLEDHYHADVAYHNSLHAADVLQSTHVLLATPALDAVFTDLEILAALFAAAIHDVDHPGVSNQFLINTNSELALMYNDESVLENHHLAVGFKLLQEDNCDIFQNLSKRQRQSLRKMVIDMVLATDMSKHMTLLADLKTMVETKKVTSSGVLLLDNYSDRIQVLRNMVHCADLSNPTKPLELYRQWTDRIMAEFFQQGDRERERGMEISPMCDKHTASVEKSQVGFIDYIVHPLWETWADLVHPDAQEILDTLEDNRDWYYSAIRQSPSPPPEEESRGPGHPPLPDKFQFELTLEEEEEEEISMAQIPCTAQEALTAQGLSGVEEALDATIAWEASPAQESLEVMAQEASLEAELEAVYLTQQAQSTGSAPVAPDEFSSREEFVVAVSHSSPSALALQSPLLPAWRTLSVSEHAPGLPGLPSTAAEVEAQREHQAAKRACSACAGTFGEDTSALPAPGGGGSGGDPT
PDE4D2, sequence (Q08499 303-809): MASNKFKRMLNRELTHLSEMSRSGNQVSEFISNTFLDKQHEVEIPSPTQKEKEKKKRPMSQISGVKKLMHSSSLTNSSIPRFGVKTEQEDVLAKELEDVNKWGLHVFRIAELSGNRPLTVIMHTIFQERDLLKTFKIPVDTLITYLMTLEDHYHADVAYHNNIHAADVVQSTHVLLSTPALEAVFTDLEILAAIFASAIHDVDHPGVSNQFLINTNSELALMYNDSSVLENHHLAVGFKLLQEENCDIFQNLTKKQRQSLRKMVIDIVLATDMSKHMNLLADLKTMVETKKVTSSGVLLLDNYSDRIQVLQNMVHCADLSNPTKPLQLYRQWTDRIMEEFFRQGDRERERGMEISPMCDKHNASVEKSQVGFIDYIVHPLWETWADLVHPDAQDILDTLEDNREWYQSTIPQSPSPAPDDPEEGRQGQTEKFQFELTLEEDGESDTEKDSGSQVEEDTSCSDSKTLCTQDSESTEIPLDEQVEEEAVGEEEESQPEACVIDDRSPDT
T2 sequence (Q07343 whole entry): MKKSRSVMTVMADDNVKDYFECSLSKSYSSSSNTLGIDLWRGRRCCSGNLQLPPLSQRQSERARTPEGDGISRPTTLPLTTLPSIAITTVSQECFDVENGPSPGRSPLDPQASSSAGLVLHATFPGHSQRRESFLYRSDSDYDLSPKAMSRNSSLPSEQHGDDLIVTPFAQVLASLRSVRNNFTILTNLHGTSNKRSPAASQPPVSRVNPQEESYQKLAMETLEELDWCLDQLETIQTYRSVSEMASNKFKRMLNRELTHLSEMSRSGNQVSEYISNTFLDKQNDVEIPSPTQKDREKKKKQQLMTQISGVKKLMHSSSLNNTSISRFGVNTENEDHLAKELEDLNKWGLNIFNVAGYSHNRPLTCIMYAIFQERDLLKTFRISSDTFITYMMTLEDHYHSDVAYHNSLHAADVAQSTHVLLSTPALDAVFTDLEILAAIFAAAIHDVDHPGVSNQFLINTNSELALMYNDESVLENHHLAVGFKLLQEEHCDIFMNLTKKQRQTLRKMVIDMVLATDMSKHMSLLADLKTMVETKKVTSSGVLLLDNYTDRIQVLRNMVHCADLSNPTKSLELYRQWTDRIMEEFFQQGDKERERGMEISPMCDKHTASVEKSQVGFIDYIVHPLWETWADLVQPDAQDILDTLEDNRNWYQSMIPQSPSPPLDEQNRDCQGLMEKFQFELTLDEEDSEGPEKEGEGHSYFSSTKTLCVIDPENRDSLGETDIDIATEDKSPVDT

CCOc1nc([C@@H](CS(C)(=O)=O)n2c(=O)n(C)c3cc(-c4ccccc4CC)cnc32)ccc1OC [Ex. 82, (S)-3-(1-(6-ethoxy-5-methoxypyridin-2-yl)-2-(methylsulfonyl)ethyl)-6-(2-ethylphenyl)-1-methyl-1H-imidazo[4,5-b]pyridin-2(3H)-one]
+: PDE4 A1 inhibitory effect at 20 nM (PDE4A1A) | PDE4 B1 inhibitory effect at 20 nM (PDE4B1) | PDE4 D2 inhibitory effect at 20 nM (PDE4D2)

CCOc1nc([C@@H](CS(C)(=O)=O)n2c(=O)[nH]c3cc(-c4cccc(F)c4C)cnc32)ccc1OC [Ex. 111, (S)-6-(3-fluoro-2-methylphenyl)-3-(1-(6-ethoxy-5-methoxypyridin-2-yl)-2-(methylsulfonyl)ethyl)-1H-imidazo[4,5-b]pyridin-2(3H)-one]
+: PDE4 A1 inhibitory effect at 20 nM (PDE4A1A) | PDE4 B1 inhibitory effect at 20 nM (PDE4B1) | PDE4 D2 inhibitory effect at 20 nM (PDE4D2)

CCOc1nc([C@@H](CS(C)(=O)=O)n2c(=O)[nH]c3c(C)c(-c4ccccc4F)cnc32)ccc1OC(F)F [Ex. 60, (S)-3-(1-(5-(difluoromethoxy)-6-ethoxypyridin-2-yl)-2-(methylsulfonyl)ethyl)-6-(2-fluorophenyl)-7-methyl-1H-imidazo[4,5-b]pyridin-2(3H)-one]
+: PDE4 A1 inhibitory effect at 20 nM (PDE4A1A) | PDE4 B1 inhibitory effect at 20 nM (PDE4B1) | PDE4 D2 inhibitory effect at 20 nM (PDE4D2)

CCOc1nc([C@@H](CS(C)(=O)=O)n2c(=O)n(C)c3cc(-c4ccc(F)cc4C)ccc32)ccc1OC [Ex. 170, (S)-5-(4-fluoro-2-methylphenyl)-1-(1-(6-ethoxy-5-methoxypyridin-2-yl)-2-(methylsulfonyl)ethyl)-3-methyl-1H-benzo[d]imidazol-2(3H)-one]
+: PDE4 A1 inhibitory effect at 20 nM (PDE4A1A) | PDE4 B1 inhibitory effect at 20 nM (PDE4B1) | PDE4 D2 inhibitory effect at 20 nM (PDE4D2)

CCOc1nc([C@@H](CS(C)(=O)=O)n2c(=O)[nH]c3cc(-c4ccc(OC)cc4F)ccc32)ccc1OC [Ex. 184, (S)-5-(2-fluoro-4-methoxyphenyl)-1-(1-(6-ethoxy-5-methoxypyridin-2-yl)-2-(methylsulfonyl)ethyl)-1H-benzo[d]imidazol-2(3H)-one]
+: PDE4 A1 inhibitory effect at 20 nM (PDE4A1A) | PDE4 B1 inhibitory effect at 20 nM (PDE4B1) | PDE4 D2 inhibitory effect at 20 nM (PDE4D2)

CCOc1nc([C@@H](CS(C)(=O)=O)n2c(=O)[nH]c3c(C)c(-c4ccccc4C(C)C)ccc32)ccc1OC [Ex. 149, (S)-1-(1-(6-ethoxy-5-methoxypyridin-2-yl)-2-(methylsulfonyl)ethyl)-5-(2-isopropylphenyl)-4-methyl-1H-benzo[d]imidazol-2(3H)-one]
+: PDE4 A1 inhibitory effect at 20 nM (PDE4A1A) | PDE4 B1 inhibitory effect at 20 nM (PDE4B1) | PDE4 D2 inhibitory effect at 20 nM (PDE4D2)

CCOc1nc([C@@H](CS(C)(=O)=O)n2c(=O)[nH]c3cc(-c4ccc(F)cc4F)cnc32)ccc1OC [Ex. 94, (S)-6-(2,4-difluorophenyl)-3-(1-(6-ethoxy-5-methoxypyridin-2-yl)-2-(methylsulfonyl)ethyl)-1H-imidazo[4,5-b]pyridin-2(3H)-one]
+: PDE4 A1 inhibitory effect at 20 nM (PDE4A1A) | PDE4 B1 inhibitory effect at 20 nM (PDE4B1) | PDE4 D2 inhibitory effect at 20 nM (PDE4D2)

CCOc1nc([C@@H](CS(C)(=O)=O)n2c(=O)n(C)c3cc(-c4cccc(C)c4C)ccc32)ccc1OC [Ex. 167, (S)-5-(2,3-dimethylphenyl)-1-(1-(6-ethoxy-5-methoxypyridin-2-yl)-2-(methylsulfonyl)ethyl)-3-methyl-1H-benzo[d]imidazol-2(3H)-one]
+: PDE4 A1 inhibitory effect at 20 nM (PDE4A1A) | PDE4 B1 inhibitory effect at 20 nM (PDE4B1) | PDE4 D2 inhibitory effect at 20 nM (PDE4D2)

CCOc1nc([C@@H](CS(C)(=O)=O)n2c(=O)[nH]c3cc(-c4cc(F)ccc4F)cnc32)ccc1OC [Ex. 92, (S)-6-(2,5-difluorophenyl)-3-(1-(6-ethoxy-5-methoxypyridin-2-yl)-2-(methylsulfonyl)ethyl)-1H-imidazo[4,5-b]pyridin-2(3H)-one]
+: PDE4 A1 inhibitory effect at 20 nM (PDE4A1A) | PDE4 B1 inhibitory effect at 20 nM (PDE4B1) | PDE4 D2 inhibitory effect at 20 nM (PDE4D2)
